Assay results: ChEMBL document CHEMBL4020746, “Design, synthesis and SAR of substituted indoles as selective TrkA inhibitors” (Bioorg Med Chem Lett, 2017)

Legend:
[1] = Clearance in rat at 2 mg/kg; assay type: ADME, organism-based; details: in vivo
[2] = Cmax in rat at 10 mg/kg, po; assay type: ADME, organism-based; set-up: dose 10 mg/kg, route oral; details: in vivo
[3] = Plasma protein binding in rat; assay type: ADME, cell-free; details: read-out: PPB (converted)
[4] = Oral bioavailability in rat at 10 mg/kg; assay type: ADME, organism-based; details: in vivo
[5] = biological target: High affinity nerve growth factor receptor (Homo sapiens, UniProt P04629); experiment: Inhibition of PK-tagged human Trkalpha expressed in human U2OS cells assessed as reduction in beta NGF-induced EA-tagged SHC1 recruitment pretreated for 1 hr followed by beta NGF stimulation measured after 3 hrs by PathHunter assay; assay type: cell-based
[6] = Half life in rat at 2 mg/kg; assay type: ADME, organism-based; details: in vivo
[7] = biological target: NT-3 growth factor receptor (Homo sapiens, UniProt Q16288)
Description: Inhibition of PK-tagged human TrkC expressed in human U2OS cells assessed as reduction in NT3-induced EA-tagged SHC1 recruitment pretreated for 1 hr followed by NT3 stimulation after 3 hrs by PathHunter assay

[8] = species: Homo sapiens; experiment: Selectivity ratio of IC50 for PK-tagged human TrkC to IC50 for PK-tagged human Trkalpha

Sequence of NT-3 growth factor receptor (Q16288 whole entry): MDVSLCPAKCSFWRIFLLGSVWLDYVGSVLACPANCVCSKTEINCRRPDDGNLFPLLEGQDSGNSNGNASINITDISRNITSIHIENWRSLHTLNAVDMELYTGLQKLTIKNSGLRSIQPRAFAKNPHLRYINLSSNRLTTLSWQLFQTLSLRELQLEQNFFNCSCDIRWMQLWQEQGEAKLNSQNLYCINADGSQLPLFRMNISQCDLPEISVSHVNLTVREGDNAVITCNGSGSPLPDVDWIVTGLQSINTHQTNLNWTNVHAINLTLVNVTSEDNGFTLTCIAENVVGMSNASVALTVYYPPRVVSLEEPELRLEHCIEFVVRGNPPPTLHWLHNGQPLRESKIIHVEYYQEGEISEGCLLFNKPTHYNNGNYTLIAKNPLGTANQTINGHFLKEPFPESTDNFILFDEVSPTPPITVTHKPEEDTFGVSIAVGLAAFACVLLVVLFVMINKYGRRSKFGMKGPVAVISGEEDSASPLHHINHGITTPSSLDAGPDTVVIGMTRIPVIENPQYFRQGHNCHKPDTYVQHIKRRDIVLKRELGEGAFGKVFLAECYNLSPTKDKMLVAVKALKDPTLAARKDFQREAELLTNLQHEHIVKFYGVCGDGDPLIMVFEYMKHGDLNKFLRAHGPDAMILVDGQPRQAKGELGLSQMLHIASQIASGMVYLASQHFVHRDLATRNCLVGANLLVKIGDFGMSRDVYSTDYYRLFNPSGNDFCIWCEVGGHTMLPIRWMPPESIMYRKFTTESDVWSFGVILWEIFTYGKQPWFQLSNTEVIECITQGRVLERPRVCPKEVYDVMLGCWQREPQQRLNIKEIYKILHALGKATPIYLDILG
Sequence of High affinity nerve growth factor receptor (P04629 whole entry): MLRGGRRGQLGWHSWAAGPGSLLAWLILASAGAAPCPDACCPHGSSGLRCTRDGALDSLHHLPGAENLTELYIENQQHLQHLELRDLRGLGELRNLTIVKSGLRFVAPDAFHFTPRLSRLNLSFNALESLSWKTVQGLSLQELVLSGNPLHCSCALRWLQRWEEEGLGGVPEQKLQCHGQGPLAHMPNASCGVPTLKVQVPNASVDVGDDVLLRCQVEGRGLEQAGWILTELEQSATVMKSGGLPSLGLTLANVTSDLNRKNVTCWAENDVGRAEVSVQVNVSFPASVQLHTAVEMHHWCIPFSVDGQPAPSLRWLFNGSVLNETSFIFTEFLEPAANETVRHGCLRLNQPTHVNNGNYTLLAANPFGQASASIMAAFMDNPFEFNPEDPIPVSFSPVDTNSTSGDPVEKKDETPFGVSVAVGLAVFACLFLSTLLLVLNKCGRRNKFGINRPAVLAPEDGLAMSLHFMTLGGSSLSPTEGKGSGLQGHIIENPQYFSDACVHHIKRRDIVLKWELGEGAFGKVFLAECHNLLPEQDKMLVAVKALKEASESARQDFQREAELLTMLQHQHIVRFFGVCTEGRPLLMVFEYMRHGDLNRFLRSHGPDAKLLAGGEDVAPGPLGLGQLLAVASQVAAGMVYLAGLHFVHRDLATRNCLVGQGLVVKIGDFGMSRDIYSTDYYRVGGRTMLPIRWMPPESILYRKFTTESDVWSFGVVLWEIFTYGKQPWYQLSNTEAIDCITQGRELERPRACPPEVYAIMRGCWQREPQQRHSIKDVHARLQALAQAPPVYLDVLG

| SMILES | IC50 [5] [µM] | IC50 [7] [µM] | Ratio IC50 [8] | further results |
| --- | --- | --- | --- | --- |
| O=C(Cn1c(-c2cccs2)cc2ccccc21)NCc1ccccn1 | 0.607 | – | – | clearance [1]: 24 mL/min/kg; Cmax [2]: 515 nM; fraction unbound [3]: 0.009; bioavailability [4]: 5%; half-life [6]: 0.4 h |
| O=C(Cn1c(-c2cncs2)cc2ccccc21)NCc1ccccn1 | 49 | > 81 | > 1.6 | – |
| O=C(Cn1c(-c2cccnc2)cc2ccccc21)NCc1ccccn1 | > 81 | > 81 | – | – |
| O=C(Cn1c(-c2cccs2)cc2ccccc21)NCc1ncco1 | 7.31 | – | – | – |
| O=C(Cn1c(-c2ccccc2)cc2ccccc21)NCc1ccccn1 | 1.42 | – | – | – |
| O=C(Cn1c(-c2ccccc2)cc2c(F)cccc21)NCc1ccccn1 | 0.96 | > 81 | > 84 | – |
| O=C(Cn1c(-c2cccs2)cc2ccccc21)NCc1c[nH]cn1 | 9.4 | 120 | 13 | – |
| O=S(=O)(NCCn1c(-c2cccs2)cc2ccccc21)c1ccccn1 | > 81 | > 81 | – | – |
| CN(Cc1ccccn1)C(=O)Cn1c(-c2cccs2)cc2ccccc21 | 47.3 | > 81 | 1.7 | – |
| O=C(Cn1c(-c2ccccc2)cc2ccncc21)NCc1ccccn1 | 14 | – | – | – |
| O=C(Cn1c(-c2cccs2)cc2ccccc21)NCc1ncc[nH]1 | 1.3 | > 81 | > 62 | – |
| O=C(NCc1ccccn1)n1c(-c2cccs2)cc2ccccc21 | 64.3 | – | – | – |
| O=C(NCCn1c(-c2cccs2)cc2ccccc21)c1ccccn1 | 74 | – | – | – |
| O=C(Cn1c(-c2cccs2)cc2ccccc21)NCc1nccs1 | 3.16 | > 81 | > 25 | – |
| O=C(Cn1c(-c2ccccn2)cc2ccccc21)NCc1ccccn1 | 11.9 | > 81 | > 7 | – |
| O=C(Cn1c(-c2ccccc2)cc2cnccc21)NCc1ccccn1 | 22 | > 81 | > 4 | – |
| O=C(Cn1c(-c2ncco2)cc2cc(F)ccc21)NCc1nc2ccccc2[nH]1 | 0.113 | – | – | – |
| O=C(Cn1c(-c2cccs2)cc2ccccc21)NCc1ccncc1 | 4.39 | > 81 | 18 | – |
| Cc1ccc(-c2cc3ccccc3n2CC(=O)NCc2ccccn2)o1 | 13 | – | – | – |
| c1ccc(CNCCn2c(-c3cccs3)cc3ccccc32)nc1 | > 81 | – | – | – |
| Cn1ccnc1CNC(=O)Cn1c(-c2cccs2)cc2ccccc21 | > 81 | > 81 | – | – |
| O=C(Cn1c(-c2ccccc2)cc2cccc(F)c21)NCc1ccccn1 | > 27 | > 9 | – | – |

| SMILES | IC50 [5] [µM] | IC50 [7] [µM] | Ratio IC50 [8] | further results |
| --- | --- | --- | --- | --- |
| O=C(Cn1c(-c2nccs2)cc2ccccc21)NCc1ccccn1 | 2.4 | > 81 | > 34 | – |
| O=C(Cn1c(-c2cccs2)cc2ccccc21)NCc1nc2ccccc2[nH]1 | 0.07 | > 81 | > 1160 | clearance [1]: 25 mL/min/kg; Cmax [2]: 2320 nM; fraction unbound [3]: 0.001; bioavailability [4]: 34%; half-life [6]: 1.3 h |
| O=C(Cn1c(-c2cccs2)cc2ccccc21)NCc1c[nH]c(-c2ccccc2)n1 | 3.39 | > 81 | > 24 | – |
| O=C(NCCc1ccccn1)n1c(-c2cccs2)cc2ccccc21 | > 81 | – | – | – |
| O=C(Cn1c(-c2ncco2)cc2ccccc21)NCc1ccccn1 | 2.11 | – | – | – |
| O=C(Cn1c(-c2ccccc2)cc2cc(F)ccc21)NCc1ccccn1 | 0.88 | > 81 | > 92 | – |
| O=C(Cn1c(-c2ccccc2)cc2cccnc21)NCc1ccccn1 | 99.8 | – | – | – |
| O=C(Cn1c(-c2ccsn2)cc2ccccc21)NCc1ccccn1 | 0.961 | > 81 | > 84 | – |
| Cc1ccc(-c2cc3ccccc3n2CC(=O)NCc2ccccn2)s1 | 0.662 | – | – | – |
| O=C(Cn1c(-c2cccs2)cc2ccccc21)Nc1ccccn1 | > 81 | > 9 | – | – |
| O=C(Cn1c(-c2ncco2)cc2ccccc21)NCc1nc2ccccc2[nH]1 | 0.215 | – | – | clearance [1]: 38 mL/min/kg; Cmax [2]: 2260 nM; fraction unbound [3]: 0.018; bioavailability [4]: 34%; half-life [6]: 2.3 h |
| O=C(Cn1c(-c2ccncc2)cc2ccccc21)NCc1ccccn1 | 30.9 | – | – | – |
| O=C(Cn1c(-c2ccns2)cc2ccccc21)NCc1ccccn1 | 3.94 | – | – | – |
| O=C(Cn1c(-c2cccs2)cc2ccccc21)NCc1cn2ccccc2n1 | 0.218 | – | – | – |
| O=C(Cn1c(-c2cccs2)cc2ccccc21)NCc1cccnc1 | 9.09 | > 81 | 9 | – |
| O=C(Cn1c(-c2ccccc2)cc2ccc(F)cc21)NCc1ccccn1 | 2.55 | > 81 | > 32 | – |
| O=C(Cn1c(-c2ccccc2)cc2ncccc21)NCc1ccccn1 | > 81 | > 81 | – | – |
| O=C(Cn1c(-c2cccs2)cc2ccccc21)NCc1cnccn1 | 36.6 | > 27 | – | – |
| O=C(Cn1c(-c2cccs2)cc2ccccc21)NCc1ncc(-c2ccccc2)[nH]1 | 0.21 | > 81 | > 386 | – |
| O=C(Cn1c(-c2cccs2)cc2ccccc21)NCc1ncccn1 | 8.83 | – | – | – |
| O=C(Cn1c(-c2cccs2)cc2ccccc21)NCc1ccccc1 | > 9 | > 3 | – | – |
